# Laboratory results taken from US12319913B2, “5-halouracil-modified microRNAs and their use in the treatment of cancer” (The Research Foundation for The State University of New York, priority 2018, dated 2025).
# [5FU] = 5-fluorouracil base replacing uracil
# Experiments:
# cancer cells = experiment: Real-time qRT-PCR of modified miR entry into cancer cells; assay type: cell-based, human; conditions: quantitative Real-Time PCR
# Method: Real-time qRT-PCR analysis of nucleic acid expression. The expression levels of microRNAs in cancer cells were quantified. Briefly, the primers specific to the microRNA of interest and an internal control RNU44 gene were purchased from Ambion. cDNA synthesis was performed by the High Capacity cDNA Synthesis Kit (Applied Biosystems) with miRNA-specific primers. Real-time qRT-PCR was carried out on an Applied Biosystems 7500 Real-Time PCR machine with miRNA-specific primers by TaqMan Gene Expression Assay (Applied Biosystems). Expression level of the exemplary miRs of the present disclosure was calculated by the ΔΔCT method based on the internal control RNU44, normalized to the control group and plotted as relative quantification.
# SW480 colon cancer cells = experiment: WST-1 cell proliferation assay, SW480; assay type: cell-based, human; conditions: SW480, in words, vs controls
# Method: For transfections, 1×10^5 cells were plated in six-well plates and transfected with 100 nM of control non-specific miRNA (Thermo Fischer), a modified microRNA, or exogenous native microRNA after 24 hours using Oligofectamine (Thermo Fischer) following the manufacturer's protocols. For reagent free transfection, cells were plated in 6 well plates at (1×10^5) cells per well. Twenty-four hours later 100 pmol miRNA (Control, miR-15a, Mimic-1) were diluted in Optimem (Thermo Fischer) and added to the plate. Media was changed after 24 hours. Media was supplemented with 10% fetal bovine serum (Thermo Fischer). Briefly, cells were cultured in growth media (DMEM/F12 supplemented with B27, 10 ng/mL bFGF, and 20 ng/mL EGF (Life Technologies) in ultra-low attachment flasks) for up to 6 days. […]
# Cell proliferation assay: Twenty-four hours after transfection, cells were seeded in 96-well plates at a density of 2000 cells per well. The cell proliferation assay was performed on days 1 to 5 by incubating 10 μl WST-1 (Roche Applied Science, Mannheim, Germany) in the culture medium for 1 h and reading the absorbance at 450 and 630 nm. The cell proliferation rate was calculated by subtracting the absorbance at 450 nm from the absorbance at 630 nm. […] The O.D. was calculated by subtracting the absorbance at 630 nm from that at 450 nm. […]
# [1] = system: HCT116 derived colon cancer stem cells; assay type: cell-based
# Method: For transfections, 1×10^5 cells were plated in six-well plates and transfected with 100 nM of control non-specific miRNA (Thermo Fischer), a modified microRNA, or exogenous native microRNA after 24 hours using Oligofectamine (Thermo Fischer) following the manufacturer's protocols. For reagent free transfection, cells were plated in 6 well plates at (1×10^5) cells per well. Twenty-four hours later 100 pmol miRNA (Control, miR-15a, Mimic-1) were diluted in Optimem (Thermo Fischer) and added to the plate. Media was changed after 24 hours. Media was supplemented with 10% fetal bovine serum (Thermo Fischer). Briefly, cells were cultured in growth media (DMEM/F12 supplemented with B27, 10 ng/mL bFGF, and 20 ng/mL EGF (Life Technologies) in ultra-low attachment flasks) for up to 6 days. The spheroid cells were maintained by collection through gentle centrifugation, dissociation to single cells and replating.
# miR-129 mimics eliminated chemotherapy resistant colon cancer stem cells. To determine the impact of certain exemplary modified microRNAs of the present disclosure (i.e., miR-129 mimics) on 5-FU resistant colon cancer stem cells, HCT116 derived colon cancer stem cells were treated with various concentrations of Mimic-1 or 5-FU.
# [2] = system: HCT116, RKO, SW480, and SW620 colon cancer cells; experiment: FITC-Annexin V apoptosis assay; design: species or system human; conditions: FACS-based FITC-Annexin assay, all 4 colon cancer cell lines, compared to native miR-129 and negative control miRNA
# Method: Apoptosis Assay. To distinguish between early and late apoptosis, a fluorescein isothiocyanate (FITC)—Annexin assay was done (Becton Dickinson). HCT116, RKO, SW480 and SW620 cells were plated into 6 well plates (1×10^5) cells per well, after 24 h, cells were transfected with 25 nM modified miRNAs using Oligofectamine. Forty-eight hours after transfection, cells were harvested, stained with propidium iodide and anti-annexin-V antibody (Annexin V-FITC Apoptosis Detection kit, Invitrogen, CA, USA) following the manufacturer's protocol, and stained cells were detected by flow cytometry.
# [3] = system: colorectal cancer stem cell xenograft; experiment: Colorectal cancer stem cell mouse xenograft model; assay type: in vivo; conditions: cells pre transfected, eight weeks after injection, n=8
# Method: Mouse subcutaneous tumor implantation model: Two days before injection, HCT116 colorectal cancer stem cells or MDA-MB-231 breast cancer cells were plated at 5×10^5/well in a 6-well ultra low attachment plate. 20 μL of the virus or 100 pmole exemplary modified miR-129 or modified miR-15a were used to transduce or transfect cells. Forty-eight hours later, cells were collected and re-suspended at 10^6/ml in DMEM/F12 knockout media with 30% matrigel. Ten-twelve week-old NOD/SCID mice (Jackson Laboratories, Bar Harbor, […], USA) were used for tumor implantation. The mice were anesthetized by isoflurane inhalation. 100 μL of cell suspension was injected subcutaneously into both sides of the lower back area. The tumor size was measured using a caliper, and tumor volume was calculated using the formula V=length×width^2/2.
# Modified miR-15a inhibits cancer development and progression in vivo. A colorectal cancer stem cell mouse xenograft model was established that included colorectal cancer cells that have been either pre transfected with modified miR-15a or negative control miRNA. Eight weeks after injection, tumors were measured and harvested.
Substance,entry into cancer cells (cancer cells),inhibition of colon cancer cell proliferation (SW480 colon cancer cells),"proliferation of HCT116 colon cancer stem cells ([1]; 25 nM, day 6)",elimination of 5-FU resistant colon cancer stem cells ([1]; 100 nM),"killing of 5-FU resistant cancer stem cells, dose dependence ([1]; increasing concentrations, FIG. 6)",induction of apoptosis [2] [fold],reduction in tumor size [3] [×]
"CU^FU^FU^FU^FU^FGCGGU^FCU^FGGGCU^FU^FGC (CUUUUUGCGGUCUGGGCUUGC; RNA, [5FU] at 2, 3, 4, 5, 6, 11, 13, 18, 19, backbone not given here) [modified miR-129]",enter cancer cells,inhibition of colon cancer cell proliferation,nearly completely blocked,over 80%,killed 5-FU resistance cancer stem cells in a dose dependent manner,2 to 30,–
"U^FAGCAGCACAU^FAAU^FGGU^FU^FU^FGU^FG (UAGCAGCACAUAAUGGUUUGUG; RNA, [5FU] at 1, 11, 14, 17, 18, 19, 21, backbone not given here) [modified miR-15a]",–,–,–,–,–,–,> 25
